Source: patent US9271995B2, “Agent for ameliorating brain hypofunction” (The University of Tokyo, priority 2008, dated 2016)

Legend:
Type in all cases: in vivo
[1] = test system: old mice (male C57BL6/Njcl); assay: Place recognition task; details: ManNAc 5 mg/ml in tap water ad libitum, paired t-test, p<0.05
Method: (§1) • 1) Object and place recognition task experiments were performed on male C57BL6/Njcl mice in three groups. Outline of the experiments is shown in FIG. 1. • Old control group: Old mice (reared from 47 to 66 weeks of age, n=10) were allowed to drink tap water ad libitum. • Old ManNAc recipient group: Old mice (reared from 47 to 66 weeks of age, n=10) were allowed to drink tap water with ManNAc (5 mg/ml) dissolved therein ad libitum. • Young control group: Young mice (reared from 8 to 18 weeks of age, n=10) were allowed to drink tap water ad libitum. • 2) Experimental procedures: An open field test was performed to examine the tendency toward anxiety and locomotor activity, and this was followed by place recognition task and object recognition task in accordance with conventional methods (see FIG. 2). • 3) Experimental results (FIGS. 3 and 4)
(§2) When ManNAc was administered to the old mice (FIG. 4C), the exploratory behavior times for the new place (paired t-test, p<0.05) and the new object (paired t-test, p<0.001) normalized in all tasks; a capability of recognition memory equivalent to that of the young mice was shown.

middle-aged mice [2] = assay: Telemeter monitoring of heart rate, body temperature and locomotor activity; details: administration of ManNAc
Source text: (§3) Mice are awake during active time in the dark phase and conversely cease their activities and have a sleep in the light phase. It is known that in aged mice, the wake-sleep rhythm is deranged to the extent of lighter sleep in the light phase and decreased activities during wake time in the dark phase. It is also known that the aging-related derangement of wake and sleep is related to hypothalamic activity and accompanied by elevated body temperatures and increased heart rates. Because these symptoms are similar to those in human patients in their middle age to senescence who complain of dissatisfaction with sleep, they serve as an appropriate model for examining the influences on sleep.
(§4) Middle-aged mice [three reared from 43 to 66 weeks of age under light-dark cycle conditions (12-hour light phase-12-hour dark phase)] were allowed to drink ManNAc solution (5 mg/ml tap water) ad libitum. During 1 week before and after the free access to the solution, […], body temperature, and locomotor activity were monitored over time using a telemeter. Also analyzed were electroencephalograms recorded during wake and sleep times in both the ManNAc non-ingestion period and the free-access period. To measure electroencephalograms and electromyograms, a mouse electroencephalogram transmitter (F20EET, Data Sciences) was implanted in each animal under anesthesia (pentobarbital, 30 mg/kg, i.v.), and electroencephalograms, electromyograms, body temperature, and locomotor activity were continuously recorded using ART (Data Sciences Company). The electroencephalograms thus obtained were analyzed using NeuroScore (Data Sciences Company), and the sleep events were classified into REM sleep and slow wave sleep. The lengths of each sleep stage were totaled and compared among the mice before and after administration and young mice.

middle-aged mice [3] = assay: Sleep analysis by electroencephalograms and electromyograms (aging-related sleep disorders)
Source text: as §3, §4

[4] = test system: old mice (male C57BL6/Njcl); assay: Object recognition task; details: ManNAc 5 mg/ml in tap water ad libitum, paired t-test, p<0.001
Method: as §1, §2

[5] = test system: old mice (male C57BL6/Njcl); assay: Open field test; details: ManNAc 5 mg/ml in tap water ad libitum
Method: as §1
Open field test (FIG. 3): Moving distance in an unfamiliar planar space was compared between the old mice and the young mice.

[6] = middle-aged mice receiving ManNAc, began to be observed on day 2 after administration

CC(=O)N[C@@H]1C(O)O[C@H](CO)[C@@H](O)[C@@H]1O (stereo partly drawn) [ManNAc, N-acetyl-D-mannosamine]
exploratory behavior time for the new place [1]: normalized
change in heart rate due to behavioral change (difference between the light and dark phases) (middle-aged mice [2]): became evident
difference in locomotor activity between the light and dark phases (middle-aged mice [2]): increased
body temperature (middle-aged mice [2]; non-active period): declined
day after the start of administration on which the effect on sleep begins to be evident (middle-aged mice [3]; extension of REM sleep time, sleep-wake rhythm): 2 days
REM sleep (middle-aged mice [3]; [6]): increased
slow wave sleep (middle-aged mice [3]; [6]): decreased
wake time (middle-aged mice [3]; [6]): remarkably increased
Wake, daily percentage (middle-aged mice [3]; middle-aged mice, 4 days after administration, ManNAc 5 mg/ml tap water ad libitum (before administration 1.8)): 2.2%
REM sleep, daily percentage (middle-aged mice [3]; middle-aged mice, 4 days after administration, ManNAc 5 mg/ml tap water ad libitum (before administration 5.4)): 10.0%
Wake (major), daily percentage (middle-aged mice [3]; middle-aged mice, 4 days after administration, ManNAc 5 mg/ml tap water ad libitum (before administration 12.7)): 15.3%
Slow wave sleep, daily percentage (middle-aged mice [3]; middle-aged mice, 4 days after administration, ManNAc 5 mg/ml tap water ad libitum (before administration 80.0)): 72.5%
exploratory behavior time for the new object [4]: normalized
total motor activity [5]: without influencing total motor activity
rise in the tendency toward anxiety (time of stay in the central portion) ([5]; vs old control): tended to decrease slightly, but the difference was statistically insignificant
